From patent US8735388B2, “Heterocyclic compounds with affinity to muscarinic receptors” (Abbvie B. V. A., priority 2007, dated 2014)
Like-named read-outs stand apart in the source and are kept apart here.

Assays:
[1] = biological target: T1, Muscarine M1 (GPCR-A-MA-ACH M1) (Homo sapiens, UniProt P11229); test: Muscarine M1 receptor binding, 3H-Pirenzepine; settings: human M1, CHO cells, ligand 2 nM, 60 min/22° C.; for Ki: read-out: RB Musc. M1 3H-Pirenzepine pKi (converted)
T1 construct: expressed in transfected cells; host or cells: CHO cells
T1 sequence (P11229 1-460): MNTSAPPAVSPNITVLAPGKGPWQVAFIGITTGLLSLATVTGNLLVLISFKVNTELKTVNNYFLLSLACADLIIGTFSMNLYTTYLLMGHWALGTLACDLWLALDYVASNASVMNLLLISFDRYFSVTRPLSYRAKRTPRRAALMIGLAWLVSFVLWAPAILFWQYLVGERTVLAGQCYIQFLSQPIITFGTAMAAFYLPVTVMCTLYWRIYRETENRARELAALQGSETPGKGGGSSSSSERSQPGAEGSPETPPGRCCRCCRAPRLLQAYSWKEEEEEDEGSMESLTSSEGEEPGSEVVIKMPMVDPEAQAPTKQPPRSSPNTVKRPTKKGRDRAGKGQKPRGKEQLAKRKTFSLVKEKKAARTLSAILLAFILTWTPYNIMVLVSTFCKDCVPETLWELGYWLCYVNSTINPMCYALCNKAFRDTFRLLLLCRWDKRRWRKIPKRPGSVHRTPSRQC
Description: (§1) Compounds were dissolved in DMSO (10 mM) and diluted in assay buffer to test concentration. Prime testing was at 10 μM; for actives (PI, percent inhibition with respect to total and non-specific binding >40%) testing was continued at lower concentrations in 10-fold dilutions: 1 μM, 0.1 μM, etc.
(§2) Following incubation of compound with the receptor preparation (from ‘Tissue’) and the Ligand at the time and temperature indicated, the receptor preparations were rapidly filtered under vacuum through glass fibre filters; the filters were washed extensively with an ice-cold buffer using a harvester. Bound radioactivity was measured by scintillation counting using a liquid scintillation cocktail.
(§3) Results were expressed as percentage of total Ligand binding and that of Non Specific Binding, per concentration of Compound tested (duplicates); from the concentration—displacement curves IC50 values were determined by non-linear regression analysis using Hill equation curve fitting. The inhibition constants (Ki) were calculated from the Cheng-Prushoff equation Ki=IC50/(1+L/Kd), where L is the concentration of radioligand in the assay, and Kd the affinity of the radioligand for the receptor. Results were expressed as pKi's, means±SD of at least 2 separate experiments; i.e. outliers (outside+/−1 std of mean) and discrepancies were excluded.

[2] = biological target: T2, Muscarine M4 (GPCR-A-MA-ACH M4) (Homo sapiens, UniProt P08173); test: Muscarine M4 receptor binding, 3H-4DAMP; settings: human M4, CHO cells, ligand 0.2 nM, 60 min/22° C.; for Ki: read-out: RB Musc. M4 3H-DAMP pKi (converted)
T2 construct: expressed in transfected cells; host or cells: CHO cells
T2 sequence (P08173 1-479): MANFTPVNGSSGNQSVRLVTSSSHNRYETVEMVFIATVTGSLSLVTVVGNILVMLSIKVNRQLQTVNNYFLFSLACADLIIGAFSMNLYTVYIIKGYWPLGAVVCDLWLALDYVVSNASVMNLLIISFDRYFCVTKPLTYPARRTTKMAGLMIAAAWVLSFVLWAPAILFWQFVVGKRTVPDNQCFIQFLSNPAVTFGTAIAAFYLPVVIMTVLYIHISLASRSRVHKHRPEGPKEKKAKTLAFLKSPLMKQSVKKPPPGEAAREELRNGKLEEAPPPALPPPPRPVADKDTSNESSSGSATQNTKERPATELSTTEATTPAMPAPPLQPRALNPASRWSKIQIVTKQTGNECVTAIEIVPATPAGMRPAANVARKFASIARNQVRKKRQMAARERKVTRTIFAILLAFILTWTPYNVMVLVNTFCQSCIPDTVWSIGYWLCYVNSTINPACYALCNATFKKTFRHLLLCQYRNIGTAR
Description: as §1, §2, §3

[3] = biological target: T2, Muscarine M4 (GPCR-A-MA-ACH M4); test: Muscarine M4 cell-based functional assay (CHO cells, Ca2+ - Aequorin luminescence)
Description: Compounds were dissolved in DMSO (10 mM) and diluted in assay buffer to test concentration. Prime testing was at 1 μM; for actives in antagonist mode (PI, percent inhibition with respect to reference agonist and blank>30%) as well as actives in agonist mode (PS, percent stimulation with respect to reference agonist and blank>30%) testing was continued at lower concentrations in 10-fold dilutions: 0.1 μM, 0.01 μM, etc.
Cells were incubated with compound and the response indicated was measured.
The results are expressed as a percent of reference agonist values and blanks in the presence of the test compound, percent stimulation for agonist mode; for the antagonist mode (test compound in the presence of reference agonist) as percent inhibition. The EC50 values (concentration causing a half-maximal stimulation of control values), IC50 values (concentration causing a half-maximal inhibition of control values) were determined by non-linear regression analysis of the concentration-response curves using Hill equation curve fitting.

[4] = biological target: T2, Muscarine M4 (GPCR-A-MA-ACH M4); test: Muscarine M4 receptor binding, 3H-Oxotremorine
Description: as §1, §2, §3

[5] = biological target: T1, Muscarine M1 (GPCR-A-MA-ACH M1); test: Muscarine M1 cell-based functional assay (CHO cells, Ca2+ - FLIPR Fluorimetry); settings: read-out: Cell funct. Musc. M1 Agonism pEC50 (converted)
[6] = human M4, CHO cells, agonist mode, reference agonist oxotremorine, read-out: Cell funct. Musc. M4 Agonism pEC50 (converted)
[7] = human M4, CHO cells, receptor binding, ligand 6 nM, 30 min/25° C., read-out: RB Musc. M4 3H-Oxotremorine pKi (converted)
[8] = human M1, CHO cells, agonist mode, reference agonist acetylcholine

SMILES | Ki [1] | Ki [2] | EC50 [3, 6] | Ki [4, 7] | EC50 [5, 8] | further results
CCCCSc1cc(C2=CCCN(C)C2)n[nH]1 [Compound 26, 3-(5-Butylsulfanyl-1H-pyrazol-3-yl)-1,2,5,6-tetrahydro-1-methylpyridine] | 158 nM | 200 nM | > 10000 nM | 251 nM |  | 
O=C1CCCN1CC#CCN1CCCC1 [oxotremorine, reference compound] |  |  |  |  |  | EC50 [3]: 40 nM
CCCCSc1c[nH]nc1[C@@H]1CN2CCC[C@H]1C2 (relative stereo) [Compound 60B, Endo-6-(4-butylsulfanyl-1H-pyrazol-3-yl)-1-azabicyclo[3.2.1]octane] | 398 nM | 158 nM | > 10000 nM |  | > 1000 nM | Ki [4]: 251 nM
CCCCNc1c[nH]nc1C1=CCCN(C)C1 [Compound 42, Butyl-[3-(1-Methyl-1,2,5,6-tetrahydro-pyridin-3-yl)-1H-pyrazol-4-yl]-amine] | 7940 nM | 5010 nM | > 10000 nM | 3980 nM |  | 
CN1CCC=C(c2n[nH]cc2SCC=Cc2ccccc2)C1 [Compound 22K, 3-[4-(3-Phenyl-allylsulfanyl)-1H-pyrazol-3-yl]-1,2,5,6-tetrahydro-1-methylpyridine] | 1260 nM | 631 nM | 1260 nM | 398 nM | 100 nM | 
CN1CCC=C(c2n[nH]cc2SCc2ccccc2)C1 [Compound 22N, 3-(4-Benzylsulfanyl-1H-pyrazol-3-yl)-1,2,5,6-tetrahydro-1-methylpyridine] | 398 nM | 251 nM | > 10000 nM | 251 nM |  | 
CCSc1c[nH]nc1C1CN2CCC1CC2 (stereo not drawn) [Compound 49D, 3-(4-Ethylsulfanyl-1H-pyrazol-3-yl)-1-azabicyclo[2.2.2]octane] | 794 nM | 100 nM |  |  |  | EC50 [5]: 39.8 nM; EC50 [3]: 158 nM; Ki [4]: 126 nM
CCCCc1c[nH]nc1C1=CCCN(C)C1 [Compound 16, 3-(4-Butyl-1H-pyrazol-3-yl)-1,2,5,6-tetrahydro-1-methylpyridine] |  |  | > 10000 nM |  |  | 
C=CCSc1c[nH]nc1C1=CCCN(C)C1 [Compound 22Q, 3-(4-Allylsulfanyl-1H-pyrazol-3-yl)-1,2,5,6-tetrahydro-1-methylpyridine] | 794 nM | 501 nM | > 10000 nM | 126 nM |  | 
CN1CCC=C(c2n[nH]cc2SCc2ccco2)C1 [Compound 22M, 3-[4-(Furan-2-yl-methylsulfanyl)-1H-pyrazol-3-yl]-1,2,5,6-tetrahydro-1-methylpyridine] | 501 nM | 398 nM | > 10000 nM | 251 nM |  | 
CN1CCC=C(c2n[nH]cc2C=Cc2cccc(F)c2)C1 [Compound 47B, 3-{-4-2[-(3-Fluor-Phenyl)-vinyl]-1H-pyrazol-3-yl}-1,2,5,6-tetrahydro-1-methylpyridine] |  |  |  |  |  | RB Musc. M1 3H-Pirenzepine pKi [1]: 6.1; RB Musc. M4 3H-DAMP pKi [2]: 6.5; Cell funct. Musc. M4 Agonism pEC50 ([3]; human M4, CHO cells, agonist mode, reference agonist oxotremorine): <5.0; RB Musc. M4 3H-Oxotremorine pKi ([4]; human M4, CHO cells, receptor binding, ligand 6 nM, 30 min/25° C.): 6.8
CN1CCC=C(c2n[nH]cc2SCCC#N)C1 [Compound 22R, 3-[3-(1-Methyl-1,2,5,6-tetrahydro-pyridin-3-yl)-1H-pyrazol-4-ylsulfanyl]-propionitrile] | 12600 nM | 3980 nM | > 10000 nM | 2000 nM |  | 
CCCC(=O)Nc1c[nH]nc1C1=CCCN(C)C1 [Compound 41] | > 10000 nM | > 10000 nM | > 10000 nM | > 10000 nM |  | 

Continued, in another order:

Ki [1] | Ki [2] | EC50 [3, 6] | Ki [4, 7] | EC50 [5, 8] | SMILES | further results
1260 nM | 316 nM | 1260 nM | 1580 nM | 126 nM | CCCCOc1c[nH]nc1C1=CCCN(C)C1 [Compound 33C, 3-(4-Butyloxy-1H-pyrazol-3-yl)-1,2,5,6-tetrahydro-1-methylpyridine] | 
1260 nM | 251 nM | 794 nM | 501 nM | 126 nM | CN1CCC=C(c2n[nH]cc2OCCCc2ccccc2)C1 [Compound 33A, 3-[4-(3-Phenyl-propoxy)-1H-pyrazol-3-yl]-1,2,5,6-tetrahydro-1-methylpyridine] | 
1000 nM | 200 nM | 631 nM | 251 nM | 251 nM | CCCCCC#Cc1conc1C1=CCCN(C)C1 [Compound 70A, 3-(4-Hept-1-ynyl-isoxazol-3-yl)-1,2,5,6-tetrahydro-1-methylpyridine] | 
2510 nM | 1000 nM | 1260 nM | 1580 nM | 100 nM | C=CCCOc1c[nH]nc1C1=CCCN(C)C1 [Compound 33D, 3-(4-But-3-enyloxy-1H-pyrazol-3-yl)-1,2,5,6-tetrahydro-1-methylpyridine] | 
1580 nM | 251 nM | 794 nM | 631 nM | 200 nM | CCCCC=Cc1conc1C1=CCCN(C)C1 [Compound 68A, 3-(4-Hex-1-enyl-isoxazol-3-yl)-1,2,5,6-tetrahydro-1-methylpyridine] | 
631 nM | 100 nM | 501 nM | 158 nM |  | CCCCCCSc1conc1C1=CCCN(C)C1 [Compound 66B, 3-(4-Hexylsulfanyl-isoxazol-3-yl)-1,2,5,6-tetrahydro-1-methylpyridine] | 
1000 nM | 316 nM | 631 nM | 158 nM | 200 nM | CCCCCCCOc1c[nH]nc1C1=CCCN(C)C1 [Compound 33E, 3-(4-Heptyloxy-1H-pyrazol-3-yl)-1,2,5,6-tetrahydro-1-methylpyridine] | 
1580 nM | 1580 nM | > 10000 nM | 1580 nM | > 1000 nM | CN1CCC=C(c2n[nH]cc2C#CCCCC2CCCCC2)C1 [Compound 45E, 3-[4-(5-Cyclohexyl-pent-1-ynyl)-1H-pyrazol-3-yl]-1,2,5,6-tetrahydro-1-methylpyridine] | 
251 nM | 39.8 nM | > 10000 nM | 79.4 nM |  | CCCCSc1conc1C1=CCCN(C)C1 [Compound 66A, 3-(4-Butylsulfanyl-isoxazol-3-yl)-1,2,5,6-tetrahydro-1-methylpyridine] | 
398 nM | 251 nM | > 10000 nM | 63.1 nM |  | CCCCCSc1c[nH]nc1[C@@H]1CN2CCC[C@H]1C2 [Compound 60A, Endo-6-(4-pentylsulfanyl-1H-Pyrazol-3-yl)-1-azabicyclo[3.2.1]octane] | 
